Values quoted from earlier work in patent publication US20200353086A1, “CONTROLLED-RELEASE FORMULATIONS” (CAMURUS AB, priority 2014, published 2020).
*1 amine or outer side, *2 acyl side, *3 side chain or, on linkers, in order; H or OH if unused. Where a SMILES comes first, the peptide text is derived from it. Side-chain parts run from the residue outwards. [ ]: non-standard residue; d: D form. The star is where a group is joined. Ethylenediamine = C(CN[*:2])N[*:1]; Hyp = O=C(O)[C@@H]1C[C@@H](O)CN1; Phg = N[C@H](C(=O)O)c1ccccc1; CO = O=C([*:1])[*:2]; Bn = c1ccc(C*)cc1

Key:
[1] = test system: somatostatin receptors (SSTRs)
[2] = human, single subcutaneous dose

Row | Compound | selectivity between somatostatin receptor subtypes [1] | terminal half-life (in vivo) | initial half-life following the peak [2] | affinity for somatostatin receptor subtypes [1] | biological half-life (natural SST-14)
1 | C[C@@H](O)[C@@H]1NC(=O)[C@H](CCCCN)NC(=O)[C@@H](Cc2c[nH]c3ccccc23)NC(=O)[C@H](Cc2ccccc2)NC(=O)[C@@H](NC(=O)[C@H](N)Cc2ccccc2)CSSC[C@@H](C(=O)N[C@H](CO)[C@@H](C)O)NC1=O [Octreotide, D-Phe-Cys-Phe-D-Trp-Lys-Thr-Cys-Thr-ol (2-7 disulphide bridge)] | high selectivity for SSTR2 and SSTRS | around 1.7 hours | – | – | –
2 | NCCCC[C@@H]1NC(=O)[C@@H](Cc2c[nH]c3ccccc23)NC(=O)[C@H](c2ccccc2)NC(=O)[C@@H]2C[C@@H](OC(=O)NCCN)CN2C(=O)[C@H](Cc2ccccc2)NC(=O)[C@H](Cc2ccc(OCc3ccccc3)cc2)NC1=O [Pasireotide] (cyclo([Hyp]([CO-Ethylenediamine])[Phg][dW]KY(Bn)F)) | – | – | 2 to 3 h | high affinity for somatostatin receptor subtypes sstr1,2,3 and sstr5 | –
3 | Ala-Gly-Cys-Lys-Asn-Phe-Phe-Trp-Lys-Thr-Phe-Thr-Ser-Cys [SST-14] | – | – | – | equally high affinity | 1-3 minutes
